# Patent US20230295157A1, “3-(1H-IMIDAZOL-2-YL)-2,3,8,8A-TETRAHYDROINDOLIZIN-5(1H)-ONE DERIVATIVES USEFUL AS FACTOR XIA INHIBITORS” (JANSSEN PHARMACEUTICA NV, priority 2020, published 2023)
# Read-outs that look alike come from different tables or passages of the source.
# Experiments:
# Factor XIa = Factor XIa (Homo sapiens (Human), UniProt P03951); test: Factor XIa inhibition assay (FLINT) utilizing a fluorophore-quencher pair peptide substrate; type: biochemical; conditions: 30 min preincubation, kinetic reads over 30 min, read-out: FXIa Kin Inh IC50
# Method in brief: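 FXIa ([…]) preincubated 30 min with compound (11-point 3-fold dilution, top 100 nM, 2% DMSO), then 15 μM quenched FXI Arg146-based peptide added; Tris pH 7.5, CaCl2, BSA, CHAPS. Fluorescence 485/520 nm read kinetically every 5 min over 30 min at RT; IC50 by 4-parameter fit.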
# human plasma kallikrein = human plasma kallikrein (Homo sapiens (Human), UniProt P03952); test: Kallikrein inhibition assay (FLINT) utilizing a quenched AMC peptide substrate; type: biochemical; conditions: 30 min preincubation, read-out: Kallikrein Kin Inh IC50
# Method in brief: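 Enzyme (2 nM final) pre-incubated 30 min at room temperature with compound (11-point, 3-fold, top 1 μM, 2% DMSO), then 50 μM Z-Gly-Pro-Arg-AMC added in Tris pH 7.5 buffer. Kinetic fluorescence 340/440 nm every 5 min over 30 min; IC50 from 4-parameter logistic fit.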
# [1] = 5Fam-[…]-K5Tamra substrate 15 μM
# [2] = kinetic reads over 30 min, Z-Gly-Pro-Arg-AMC substrate 50 μM
# [3] = 5Fam-KLTRAETV-K5Tamra substrate 15 μM
# Sequence of human plasma kallikrein (P03952 391-638): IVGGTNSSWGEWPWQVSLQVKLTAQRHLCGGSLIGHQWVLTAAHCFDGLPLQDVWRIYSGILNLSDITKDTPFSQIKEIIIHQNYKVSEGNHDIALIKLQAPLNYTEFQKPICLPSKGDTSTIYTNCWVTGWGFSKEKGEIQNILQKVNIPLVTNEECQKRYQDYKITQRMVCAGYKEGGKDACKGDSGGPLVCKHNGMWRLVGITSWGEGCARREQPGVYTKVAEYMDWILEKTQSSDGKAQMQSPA
# Sequence of human plasma kallikrein (P03952 20-390 partner): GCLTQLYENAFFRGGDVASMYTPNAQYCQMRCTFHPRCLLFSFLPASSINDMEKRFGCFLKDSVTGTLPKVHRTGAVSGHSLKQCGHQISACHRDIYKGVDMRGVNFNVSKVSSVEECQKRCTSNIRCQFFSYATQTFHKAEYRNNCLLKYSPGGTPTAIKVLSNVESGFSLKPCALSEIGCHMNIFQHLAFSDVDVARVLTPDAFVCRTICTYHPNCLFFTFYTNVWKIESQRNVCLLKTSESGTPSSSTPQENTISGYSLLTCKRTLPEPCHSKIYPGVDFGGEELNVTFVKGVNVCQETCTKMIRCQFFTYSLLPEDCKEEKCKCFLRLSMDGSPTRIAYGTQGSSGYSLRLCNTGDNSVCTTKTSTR
# Sequence of Factor XIa (P03951 388-625): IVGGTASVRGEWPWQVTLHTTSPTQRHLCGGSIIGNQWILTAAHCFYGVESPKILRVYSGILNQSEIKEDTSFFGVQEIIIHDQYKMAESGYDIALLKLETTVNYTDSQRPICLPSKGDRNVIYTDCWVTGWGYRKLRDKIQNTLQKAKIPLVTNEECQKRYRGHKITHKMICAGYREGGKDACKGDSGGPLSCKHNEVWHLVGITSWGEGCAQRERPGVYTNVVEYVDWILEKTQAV
# Sequence of Factor XIa (P03951 19-387 partner): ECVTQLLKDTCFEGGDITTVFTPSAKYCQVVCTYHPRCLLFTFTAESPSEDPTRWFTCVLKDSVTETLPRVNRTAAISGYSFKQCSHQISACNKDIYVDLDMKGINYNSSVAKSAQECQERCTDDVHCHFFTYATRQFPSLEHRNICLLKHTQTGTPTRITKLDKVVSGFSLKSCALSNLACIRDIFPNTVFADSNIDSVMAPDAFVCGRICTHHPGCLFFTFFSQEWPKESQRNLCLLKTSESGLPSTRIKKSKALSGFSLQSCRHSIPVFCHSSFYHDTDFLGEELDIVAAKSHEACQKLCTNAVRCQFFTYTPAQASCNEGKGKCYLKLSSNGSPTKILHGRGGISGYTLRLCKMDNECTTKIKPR
IC50 (Factor XIa; [1]) [nM],IC50 (human plasma kallikrein; [2]) [µM],IC50 (Factor XIa; [3]) [nM],"IC50 (human plasma kallikrein; μM, kinetic reads) [µM]",SMILES
4.9,0.0524,,,"O=C1C=C(c2c(-n3cnnn3)ccc(Cl)c2F)C[C@H]2CC[C@@H](c3ncc(-c4ccnc(C5(O)CC5)c4Cl)[nH]3)N12 (relative stereo) [Example 155, (3*S,8aR)-3-(5-(3-chloro-2-(1-hydroxycyclopropyl)pyridin-4-yl)-1H-imidazol-2-yl)-7-(3-chloro-2-fluoro-6-(1H-tetrazol-1-yl)phenyl)-2,3,8,8a-tetrahydroindolizin-5(1H)-one]"
,0.021,2.7,,"Cn1cc(-c2c[nH]c([C@@H]3CCC4CC(c5c(-n6cnnn6)ccc(Cl)c5F)=CC(=O)N43)n2)c(NC(=O)C2CC2)n1 (stereo partly drawn) [Example 259, N-[4-[2-[(3S)-7-[3-Chloro-2-fluoro-6-(tetrazol-1-yl)phenyl]-5-oxo-2,3,8,8a-tetrahydro-1H-indolizin-3-yl]-1H-imidazol-4-yl]-1-methyl-pyrazol-3-yl]cyclopropanecarboxamide]"
,0.141,1.8,,"CC(F)(F)C(=O)Nc1cnccc1-c1c[nH]c([C@@H]2CCC3CC(c4c(-n5cnnn5)ccc(Cl)c4F)=CC(=O)N32)n1 (stereo partly drawn) [Example 246, N-[4-[2-[(3S)-7-[3-Chloro-2-fluoro-6-(tetrazol-1-yl)phenyl]-5-oxo-2,3,8,8a-tetrahydro-1H-indolizin-3-yl]-1H-imidazol-4-yl]-3-pyridyl]-2,2-difluoro-propanamide]"
,0.0126,3.1,,"O=C1Cc2ccc(-c3cnc([C@@H]4CCC5CC(c6c(-n7cnnn7)ccc(Cl)c6F)=CC(=O)N54)[nH]3)c(F)c2N1 (stereo partly drawn) [Example 383, 6-(2-((3S)-7-(3-chloro-2-fluoro-6-(1H-tetrazol-1-yl)phenyl)-5-oxo-1,2,3,5,8,8a-hexahydroindolizin-3-yl)-1H-imidazol-5-yl)-7-fluoroindolin-2-one]"
,0.0066,0.6,,"CS(=O)(=O)Nc1cc(-c2[nH]c(C3CCC4CC(c5c(-n6cnnn6)ccc(Cl)c5F)=CC(=O)N43)nc2F)ccn1 (centres unmarked) [Example 6, N-[4-[2-[7-[3-Chloro-2-fluoro-6-(tetrazol-1-yl)phenyl]-5-oxo-2,3,8,8a-tetrahydro-1H-indolizin-3-yl]-4-fluoro-1H-imidazol-5-yl]-2-pyridyl]methanesulfonamide]"
,0.0019,0.6,,"O=C1C=C(c2cc(Cl)ccc2-n2cc(C(F)(F)F)nn2)C[C@H]2CC[C@@H](c3ncc(-c4ccc5[nH]c(=O)ccc5c4)[nH]3)N12 [Example 101, 6-(2-((3S,8aR)-7-(5-chloro-2-(4-(trifluoromethyl)-1H-1,2,3-triazol-1-yl)phenyl)-5-oxo-1,2,3,5,8,8a-hexahydroindolizin-3-yl)-1H-imidazol-5-yl)quinolin-2(1H)-one]"
,0.029,3,,"O=C1C=C(c2c(-n3cnnn3)ccc(Cl)c2F)C[C@H]2CC[C@@H](c3ncc(-c4ccncc4F)[nH]3)N12 [Example 17, (3S,8aR)-7-[3-Chloro-2-fluoro-6-(tetrazol-1-yl)phenyl]-3-[5-(3-fluoro-4-pyridyl)-1H-imidazol-2-yl]-2,3,8,8a-tetrahydro-1H-indolizin-5-one]"
,0.33,61,,"CC(=O)N[C@H](C)c1ccc(-c2cnc([C@@H]3CCC4CC(c5c(-n6cnnn6)ccc(Cl)c5F)=CC(=O)N43)[nH]2)cc1 (stereo partly drawn) [Example 16, N-[(1R)-1-[4-[2-[(3S)-7-[3-Chloro-2-fluoro-6-(tetrazol-1-yl)phenyl]-5-oxo-2,3,8,8a-tetrahydro-1H-indolizin-3-yl]-1H-imidazol-5-yl]phenyl]ethyl]acetamide]"
,0.0078,1,,"CC(C)(O)CCc1nccc(-c2cnc([C@@H]3CC[C@@H]4CC(c5c(-n6cnnn6)ccc(Cl)c5F)=CC(=O)N43)[nH]2)c1F (single isomer, unassigned) [Example 158, (3*S,8a*R)-7-(3-chloro-2-fluoro-6-(1H-tetrazol-1-yl)phenyl)-3-(5-(3-fluoro-2-(3-hydroxy-3-methylbutyl)pyridin-4-yl)-1H-imidazol-2-yl)-2,3,8,8a-tetrahydroindolizin-5(1H)-one]"
,0.0046,1,,"O=C1C=C(c2c(-n3cnnn3)ccc(Cl)c2F)C[C@H]2CC[C@@H](c3nc(-c4ccc5[nH]cnc5c4)c[nH]3)N12 [Example 42, (3S,8aR)-3-(4 (1H-benzo[d]imidazol-5-yl)-1H-imidazol-2-yl)-7-(3-chloro-2-fluoro-6-(1H-tetrazol-1-yl)phenyl)-2,3,8,8a-tetrahydroindolizin-5(1H)-one]"
0.6,0.009,,,"CNc1ccc(-c2cnc([C@@H]3CC[C@@H]4CC(c5cc(Cl)ccc5-n5cnnn5)=CC(=O)N43)[nH]2)c(F)n1 (single isomer, unassigned) [Example 98, (3S*,8aR)-7-(5-chloro-2-(1H-tetrazol-1-yl)phenyl)-3-(5-(2-fluoro-6-(methylamino)pyridin-3-yl)-1H-imidazol-2-yl)-2,3,8,8a-tetrahydroindolizin-5(1H)-one]"
0.7,0.0075,,,"[2H]c1c(NC)nc(F)c(-c2cnc([C@H]3CC[C@@H]4CC(c5c(-n6cnnn6)ccc(Cl)c5F)=CC(=O)N43)[nH]2)c1[2H] (relative stereo) [Example 133, (3R*,8aR)-7-(3-chloro-2-fluoro-6-(1H-tetrazol-1-yl)phenyl)-3-(5-(2-fluoro-6-(methylamino)pyridin-3-yl-4,5-d2)-1H-imidazol-2-yl)-2,3,8,8a-tetrahydroindolizin-5(1H)-one]"
,0.0337,5.1,,"[2H]C([2H])(O)c1nccc(-c2cnc([C@@H]3CC[C@]4([2H])CC(c5c(-n6cnnn6)ccc(Cl)c5F)=CC(=O)N34)[nH]2)c1F (single isomer, unassigned) [Example 36]"
,0.542,85.8,,"O=C1C=C(c2c(-n3cnnn3)ccc(Cl)c2F)CC2CC[C@@H](c3nc(-c4cnn[nH]4)c[nH]3)N12 (stereo partly drawn) [Example 332, (3S)-3-(4-(1H-1,2,3-Triazol-5-yl)-1H-imidazol-2-yl)-7-(3-chloro-2-fluoro-6-(1H-tetrazol-1-yl)phenyl)-2,3,8,8a-tetrahydroindolizin-5(1H)-one]"
,0.0542,44.7,,"O=C1C=C(c2c(-n3cnnn3)ccc(Cl)c2F)C[C@H]2CC[C@@H](c3nc(-c4cnc5[nH]ncc5c4)c[nH]3)N12 [Example 41, (3S,8aR)-3-(4-(1H-pyrazolo[3,4-b]pyridin-5-yl)-1H-imidazol-2-yl)-7-(3-chloro-2-fluoro-6-(1H-tetrazol-1-yl)phenyl)-2,3,8,8a-tetrahydroindolizin-5(1H)-one]"
,0.61,87,,"Nc1ccc(-c2c[nH]c([C@@H]3CCC4CC(c5c(-c6cnc[nH]6)ccc(Cl)c5F)=CC(=O)N43)n2)c(F)n1 (stereo partly drawn) [Example 364, (3S)-3-(4-(6-Amino-2-fluoropyridin-3-yl)-1H-imidazol-2-yl)-7-(3-chloro-2-fluoro-6-(1H-imidazol-5-yl)phenyl)-2,3,8,8a-tetrahydroindolizin-5(1H)-one]"
,0.0306,4.2,,"O=C1C=C(c2c(-n3cnnn3)ccc(Cl)c2F)C[C@H]2CC[C@H](c3ncc(-c4ccnc(C5(O)CC5)c4F)[nH]3)N12 (single isomer, unassigned) [Example 162, (3*R,8aR)-7-(3-chloro-2-fluoro-6-(1H-tetrazol-1-yl)phenyl)-3-(5-(3-fluoro-2-(1-hydroxycyclopropyl)pyridin-4-yl)-1H-imidazol-2-yl)-2,3,8,8a-tetrahydroindolizin-5(1H)-one]"
,0.0111,0.4,,"O=C1C=C(c2c(-n3cnnn3)ccc(Cl)c2F)C[C@H]2CC[C@@H](c3ncc(-c4c[nH]cc4C(F)(F)F)[nH]3)N12 [Example 230, (3S,8aR)-7-(3-Chloro-2-fluoro-6-(1H-tetrazol-1-yl)phenyl)-3-(5-(4-(trifluoromethyl)-1H-pyrrol-3-yl)-1H-imidazol-2-yl)-2,3,8,8a-tetrahydroindolizin-5(1H)-one]"
,,> 100,> 1,"Nc1ccc(-c2cnc([C@@H]3CCC4CC(c5c(-c6ccn[nH]6)ccc(Cl)c5F)=CC(=O)N43)[nH]2)c(F)n1 (stereo partly drawn) [Example 363, (3S)-3-(5-(6-Amino-2-fluoropyridin-3-yl)-1H-imidazol-2-yl)-7-(3-chloro-2-fluoro-6-(1H-pyrazol-5-yl)phenyl)-2,3,8,8a-tetrahydroindolizin-5(1H)-one]"
,0.0444,0.5,,"O=C1C=C(c2c(-n3cnnn3)ccc(Cl)c2F)C[C@H]2CC[C@@H](c3ncc(-c4ccnc(COP(=O)(O)O)c4F)[nH]3)N12 [Example 61, (4-(2-((3S,8aR)-7-(3-chloro-2-fluoro-6-(1H-tetrazol-1-yl)phenyl)-5-oxo-1,2,3,5,8,8a-hexahydroindolizin-3-yl)-1H-imidazol-5-yl)-3-fluoropyridin-2-yl)methyl dihydrogen phosphate]"
,0.0207,9.3,,"NC(=O)c1ncc(-c2c[nH]c([C@@H]3CC[C@@H]4CC(c5c(-n6cc(C(F)(F)F)nn6)ccc(Cl)c5F)=CC(=O)N43)n2)s1 (single isomer, unassigned) [Example 210]"
,0.0909,20.5,,"NC(=O)c1ccc(-c2cnc([C@@H]3CC[C@@H]4CC(c5c(-n6cc(C(F)(F)F)nn6)ccc(Cl)c5F)=CC(=O)N43)[nH]2)cn1 (single isomer, unassigned) [Example 212]"
